Experimental findings from patent publication US8796289B2 (AbbVie Inc., priority 2011, dated 2014) are described below.

Structures are written as SMILES.

Chain of GST-tagged-Wee1 kinase (P30291 whole entry): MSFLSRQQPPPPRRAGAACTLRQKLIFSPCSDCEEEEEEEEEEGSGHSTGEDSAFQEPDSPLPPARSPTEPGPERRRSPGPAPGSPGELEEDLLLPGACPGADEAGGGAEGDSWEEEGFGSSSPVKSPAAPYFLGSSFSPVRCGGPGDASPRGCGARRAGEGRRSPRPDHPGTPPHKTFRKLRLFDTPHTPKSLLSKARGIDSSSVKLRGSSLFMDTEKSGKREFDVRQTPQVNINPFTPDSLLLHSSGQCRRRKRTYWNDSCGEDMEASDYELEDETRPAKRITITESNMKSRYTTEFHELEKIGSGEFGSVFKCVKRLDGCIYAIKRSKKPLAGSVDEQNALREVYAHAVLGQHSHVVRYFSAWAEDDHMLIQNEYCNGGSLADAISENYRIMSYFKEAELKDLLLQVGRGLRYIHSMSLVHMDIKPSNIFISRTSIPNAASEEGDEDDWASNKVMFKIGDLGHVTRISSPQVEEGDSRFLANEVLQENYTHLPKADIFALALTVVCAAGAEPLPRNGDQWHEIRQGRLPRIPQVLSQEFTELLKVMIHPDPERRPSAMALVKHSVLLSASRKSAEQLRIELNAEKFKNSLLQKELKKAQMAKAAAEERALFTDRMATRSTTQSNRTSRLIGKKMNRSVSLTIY

This experiment addresses GST-tagged-Wee1 kinase (Homo sapiens, UniProt P30291). Put plainly: Wee1 time-resolved fluorescence equilibrium binding assay (displacement of Oregon Green-labeled ATP-competitive kinase probe). On the procedure:
Wee1 kinase was assayed using a time-resolved fluorescence equilibrium binding assay monitoring displacement of a rapidly reversible Oregon Green-labeled ATP-competitive kinase probe (N-(2-(2-(2-(4-(4-(5-chloro-4-(2-(1-hydroxycyclobutyl)thiazol-5-yl)-1H-pyrrolo[2,3-b]pyridin-2-yl)phenyl)piperazin-1-yl)ethoxy)ethoxy)ethyl)-2′,7′-difluoro-3′,6′-dihydroxy-3-oxo-3H-spiro[isobenzofuran-1,9′-xanthene]-5-carboxamide) by competitive Wee1 inhibitors.
`Cc1nn(-c2c(F)cccc2Cl)c(=O)c2cnc(Nc3ccc4c(c3)CNCC4)nc12` [Example 398, 6-(2-chloro-6-fluorophenyl)-8-methyl-2-(1,2,3,4-tetrahydroisoquinolin-7-ylamino)pyrimido[4,5-d]pyridazin-5(6H)-one] gave a Ki of 1 nM.

Turning to `Cc1nn(-c2ncccc2Cl)c(=O)c2cnc(Nc3ccc(N4CCNCC4)cc3)nc12` [Example 399, 6-(3-chloropyridin-2-yl)-8-methyl-2-{[4-(piperazin-1-yl)phenyl]amino}pyrimido[4,5-d]pyridazin-5(6H)-one], the affinity corresponds to a Ki of 18 nM.

The compound `Cc1nn(-c2ncccc2Cl)c(=O)c2cnc(Nc3ccc4c(c3)CNCC4)nc12` [Example 400, 6-(3-chloropyridin-2-yl)-8-methyl-2-(1,2,3,4-tetrahydroisoquinolin-7-ylamino)pyrimido[4,5-d]pyridazin-5(6H)-one] had a Ki of 6.7 nM.

With `Cc1nn(-c2c(Cl)cccc2Cl)c(=O)c2cnc(Nc3ccc4c(c3)CN(C)CC43CC3)nc12` [Example 401, 6-(2,6-dichlorophenyl)-8-methyl-2-[(2′-methyl-2′,3′-dihydro-1′H-spiro[cyclopropane-1,4′-isoquinolin]-7′-yl)amino]pyrimido[4,5-d]pyridazin-5(6H)-one], the Ki is 0.22 nM.

In turn, `CCc1nn(-c2c(Cl)cccc2Cl)c(=O)c2cnc(Nc3ccc4c(c3)CN(C)CC43CC3)nc12` [Example 402, 6-(2,6-dichlorophenyl)-8-ethyl-2-[(2′-methyl-2′,3′-dihydro-1′H-spiro[cyclopropane-1,4′-isoquinolin]-7′-yl)amino]pyrimido[4,5-d]pyridazin-5(6H)-one] returned a Ki of 0.23 nM.

The compound `CCc1nn(-c2c(Cl)cccc2Cl)c(=O)c2cnc(Nc3ccc4c(c3)CNCC4)nc12` [Example 403, 6-(2,6-dichlorophenyl)-8-ethyl-2-(1,2,3,4-tetrahydroisoquinolin-7-ylamino)pyrimido[4,5-d]pyridazin-5(6H)-one] displayed a Ki of 0.21 nM.

Consider `CCc1nn(-c2c(Cl)cccc2Cl)c(=O)c2cnc(Nc3ccc4c(c3)CNCC43CC3)nc12` [Example 404, 6-(2,6-dichlorophenyl)-2-(2′,3′-dihydro-1′H-spiro[cyclopropane-1,4′-isoquinolin]-7′-ylamino)-8-ethylpyrimido[4,5-d]pyridazin-5(6H)-one], for which the inhibition constant Ki was found to be 0.25 nM.

As to `O=c1c2cnc(Nc3ccc(N4CCNCC4)cc3)nc2c(C(F)F)nn1-c1c(Cl)cccc1Cl` [Example 405, 6-(2,6-dichlorophenyl)-8-(difluoromethyl)-2-{[4-(piperazin-1-yl)phenyl]amino}pyrimido[4,5-d]pyridazin-5(6H)-one], the affinity, expressed as Ki, was 0.79 nM.

For the compound `CCc1nn(-c2c(Cl)cccc2Cl)c(=O)c2cnc(Nc3ccc4c(c3)CC(N(C)C)C4)nc12` (stereo not shown) [Example 406, 6-(2,6-dichlorophenyl)-2-{[2-(dimethylamino)-2,3-dihydro-1H-inden-5-yl]amino}-8-ethylpyrimido[4,5-d]pyridazin-5(6H)-one], the Ki was determined as 0.7 nM.

The compound `O=c1c2cnc(Nc3ccc4c(c3)CNCC43CC3)nc2c(C(F)F)nn1-c1c(Cl)cccc1Cl` [Example 407, 6-(2,6-dichlorophenyl)-8-(difluoromethyl)-2-(2′,3′-dihydro-1′H-spiro[cyclopropane-1,4′-isoquinolin]-7′-ylamino)pyrimido[4,5-d]pyridazin-5(6H)-one] yielded a Ki of 0.21 nM.

Compound `CN(C)C1Cc2ccc(Nc3ncc4c(=O)n(-c5c(Cl)cccc5Cl)nc(C(F)F)c4n3)cc2C1` (stereo not shown) [Example 408, 6-(2,6-dichlorophenyl)-8-(difluoromethyl)-2-{[2-(dimethylamino)-2,3-dihydro-1H-inden-5-yl]amino}pyrimido[4,5-d]pyridazin-5(6H)-one] had a Ki of 0.41 nM.

For `CCc1nn(-c2c(Cl)cccc2Cl)c(=O)c2cnc(Nc3ccc(N4CCNCC4)cc3)nc12` [Example 409, 6-(2,6-dichlorophenyl)-8-ethyl-2-{[4-(piperazin-1-yl)phenyl]amino}pyrimido[4,5-d]pyridazin-5(6H)-one], the affinity, expressed as Ki, was 1 nM.

`O=c1c2cnc(Nc3ccc4c(c3)CNCC4)nc2c(C(F)F)nn1-c1c(Cl)cccc1Cl` [Example 410, 6-(2,6-dichlorophenyl)-8-(difluoromethyl)-2-(1,2,3,4-tetrahydroisoquinolin-7-ylamino)pyrimido[4,5-d]pyridazin-5(6H)-one]: affinity was put at a Ki of 1 nM.

Consider `CN1Cc2cc(Nc3ncc4c(=O)n(-c5c(Cl)cccc5Cl)nc(C(F)F)c4n3)ccc2C2(CC2)C1` [Example 411, 6-(2,6-dichlorophenyl)-8-(difluoromethyl)-2-[(2′-methyl-2′,3′-dihydro-1′H-spiro[cyclopropane-1,4′-isoquinolin]-7′-yl)amino]pyrimido[4,5-d]pyridazin-5(6H)-one], for which the Ki was found to be 1 nM.

Take `CN1CCN(c2ccc(Nc3ncc4c(=O)n(-c5c(Cl)cccc5Cl)nc(C(F)(F)F)c4n3)cc2)CC1` [Example 412, 6-(2,6-dichlorophenyl)-2-{[4-(4-methylpiperazin-1-yl)phenyl]amino}-8-(trifluoromethyl)pyrimido[4,5-d]pyridazin-5(6H)-one]: the Ki was 1 nM.

For `CN1Cc2cc(Nc3ncc4c(=O)n(-c5c(Cl)cccc5Cl)nc(C(F)(F)F)c4n3)ccc2C2(CC2)C1` [Example 413, 6-(2,6-dichlorophenyl)-2-[(2′-methyl-2′,3′-dihydro-1′H-spiro[cyclopropane-1,4′-isoquinolin]-7′-yl)amino]-8-(trifluoromethyl)pyrimido[4,5-d]pyridazin-5(6H)-one], the affinity, expressed as Ki, was 0.34 nM.

Regarding `CCc1nn(-c2c(Cl)cccc2Cl)c(=O)c2cnc(Nc3ccc(N4CCN(C(C)=O)CC4)cc3)nc12` [Example 414, 2-{[4-(4-acetylpiperazin-1-yl)phenyl]amino}-6-(2,6-dichlorophenyl)-8-ethylpyrimido[4,5-d]pyridazin-5(6H)-one], the Ki was found to be 0.75 nM.

Compound `CC(=O)N1Cc2cc(Nc3ncc4c(=O)n(-c5c(Cl)cccc5Cl)nc(C(F)F)c4n3)ccc2C2(CC2)C1` [Example 415, 2-[(2′-acetyl-2′,3′-dihydro-1′H-spiro[cyclopropane-1,4′-isoquinolin]-7′-yl)amino]-6-(2,6-dichlorophenyl)-8-(difluoromethyl)pyrimido[4,5-d]pyridazin-5(6H)-one] gave a Ki of 1 nM.

With `Cc1nn(-c2c(Cl)cccc2Cl)c(=O)c2cnc(Nc3ccc4c(c3)CN(C(N)=O)CC43CC3)nc12` [Example 416, 7′-{[6-(2,6-dichlorophenyl)-8-methyl-5-oxo-5,6-dihydropyrimido[4,5-d]pyridazin-2-yl]amino}-1′H-spiro[cyclopropane-1,4′-isoquinoline]-2′(3′H)-carboxamide], the Ki is 0.19 nM.

For the compound `CC(=O)N1Cc2cc(Nc3ncc4c(=O)n(-c5c(Cl)cccc5Cl)nc(C)c4n3)ccc2C2(CC2)C1` [Example 417, 2-[(2′-acetyl-2′,3′-dihydro-1′H-spiro[cyclopropane-1,4′-isoquinolin]-7′-yl)amino]-6-(2,6-dichlorophenyl)-8-methylpyrimido[4,5-d]pyridazin-5(6H)-one], the Ki was 0.31 nM.

`O=c1c2cnc(Nc3ccc(N4CCNCC4)cc3)nc2c(C(F)(F)F)nn1-c1c(Cl)cccc1Cl` [Example 418, 6-(2,6-dichlorophenyl)-2-{[4-(piperazin-1-yl)phenyl]amino}-8-(trifluoromethyl)pyrimido[4,5-d]pyridazin-5(6H)-one] came in with a Ki of 0.35 nM.

In turn, `CN1CCN(c2ccc(Nc3ncc4c(=O)n(-c5c(Cl)cccc5Cl)nc(CF)c4n3)cc2)CC1` [Example 419, 6-(2,6-dichlorophenyl)-8-(fluoromethyl)-2-{[4-(4-methylpiperazin-1-yl)phenyl]amino}pyrimido[4,5-d]pyridazin-5(6H)-one] returned a Ki of 0.19 nM.

On to `O=c1c2cnc(Nc3ccc4c(c3)CNCC43CC3)nc2c(C(F)(F)F)nn1-c1c(Cl)cccc1Cl` [Example 420, 6-(2,6-dichlorophenyl)-2-(2′,3′-dihydro-1′H-spiro[cyclopropane-1,4′-isoquinolin]-7′-ylamino)-8-(trifluoromethyl)pyrimido[4,5-d]pyridazin-5(6H)-one], for which the Ki came to 0.45 nM.

In turn, `O=c1c2cnc(Nc3ccc4c(c3)CNCC4)nc2c(C(F)(F)F)nn1-c1c(Cl)cccc1Cl` [Example 421, 6-(2,6-dichlorophenyl)-2-(1,2,3,4-tetrahydroisoquinolin-7-ylamino)-8-(trifluoromethyl)pyrimido[4,5-d]pyridazin-5(6H)-one] returned a Ki of 0.5 nM.

As for `O=c1c2cnc(Nc3ccc(C4CCNC4)cc3)nc2c(C(F)(F)F)nn1-c1c(Cl)cccc1Cl` (stereo not shown) [Example 422, 6-(2,6-dichlorophenyl)-2-{[4-(pyrrolidin-3-yl)phenyl]amino}-8-(trifluoromethyl)pyrimido[4,5-d]pyridazin-5(6H)-one], the affinity corresponds to a Ki of 0.4 nM.

`COCc1nn(-c2c(Cl)cccc2Cl)c(=O)c2cnc(Nc3ccc(N4CCN(C)CC4)cc3)nc12` [Example 423, 6-(2,6-dichlorophenyl)-8-(methoxymethyl)-2-{[4-(4-methylpiperazin-1-yl)phenyl]amino}pyrimido[4,5-d]pyridazin-5(6H)-one] displayed a Ki of 0.7 nM.

`COCc1nn(-c2c(Cl)cccc2Cl)c(=O)c2cnc(Nc3ccc(N4CCNCC4)cc3)nc12` [Example 424, 6-(2,6-dichlorophenyl)-8-(methoxymethyl)-2-{[4-(piperazin-1-yl)phenyl]amino}pyrimido[4,5-d]pyridazin-5(6H)-one] had a Ki of 0.4 nM.

Turning to `Cc1nn(-c2c(Cl)cccc2Cl)c(=O)c2cnc(Nc3ccc(N4CCC(N(C)C)CC4)cc3)nc12` [Example 425, 6-(2,6-dichlorophenyl)-2-({4-[4-(dimethylamino)piperidin-1-yl]phenyl}amino)-8-methylpyrimido[4,5-d]pyridazin-5(6H)-one], the Ki is 0.19 nM.
